What all share (assay type): cell-based
Test [1] deals with T1, PPAR delta (Homo sapiens, UniProt Q03181).
T1 construct: expressed in transfected cells; host or cells: HEK293
T1 sequence (Q03181 211-439 limits assumed): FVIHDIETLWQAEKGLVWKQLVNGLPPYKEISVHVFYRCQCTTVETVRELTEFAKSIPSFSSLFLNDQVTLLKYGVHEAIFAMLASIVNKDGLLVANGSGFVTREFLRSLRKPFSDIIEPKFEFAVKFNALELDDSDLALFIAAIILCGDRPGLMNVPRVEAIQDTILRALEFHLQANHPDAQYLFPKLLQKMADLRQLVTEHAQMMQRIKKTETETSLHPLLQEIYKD
Nature of the test: Transfection assay for PPAR receptors (GAL4-LBD luciferase reporter), PPAR delta. Particulars: Table 1; HEK293 cells co-transfected with PPAR LBD-GAL4 and GAL4 (UAS) luciferase reporter, 18–24 hrs. As to the method: (§1) Transfection Assay Method for PPAR Receptors
(§2) HEK293 cells were grown in DMEM/F12 medium supplemented with 10% FBS and glutamine (Invitrogen) and incubated in a 5% CO2 incubator at 37° C. The cells were co-transfected using DMRIE-C reagent (Invitrogen) in serum free medium (Opti-MEM, Invitrogen) with two mammalian expression plasmids, one containing the DNA sequence coding for the ligand binding domains of either PPARαg or d fused to the yeast GAL4 DNA binding domain and the other containing the promoter sequence of the yeast GAL4 (UAS) fused to the firefly luciferase cDNA reporter. The next day, the medium was changed to DMEM/F12 medium supplemented with 5% charcoal treated serum (Hyclone) and glutamine. After 6 hrs the cells were trypsinized and seeded at a density of 50,000 cells/well into 96 well plates and incubated overnight as above. The cells were then treated with -test compounds or vehicle and incubated for 18–24 hrs as above. Luciferase reporter activity was measured using the Steady-Glo Luciferase Assay Kit from Promega. DMRIE-C Reagent was purchased from GIBCO Cat. No.10459-014. […] Steady-Glo Luciferase Assay Kit was purchased from Promega (Part#E254B).
On the technique in general: A reporter such as luciferase makes a cellular process visible.

Test [2] deals with T2, PPAR alpha (Homo sapiens, UniProt Q07869).
T2 construct: expressed in transfected cells; host or cells: HEK293
T2 sequence (Q07869 239-466 limits assumed): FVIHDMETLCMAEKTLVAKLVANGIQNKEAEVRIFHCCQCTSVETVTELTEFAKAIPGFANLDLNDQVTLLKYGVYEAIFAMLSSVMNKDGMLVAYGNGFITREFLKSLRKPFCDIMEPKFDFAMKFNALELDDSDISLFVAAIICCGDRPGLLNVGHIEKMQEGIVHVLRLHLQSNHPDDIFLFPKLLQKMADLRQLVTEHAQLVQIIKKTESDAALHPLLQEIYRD
Put plainly: Transfection assay for PPAR receptors (GAL4-LBD luciferase reporter), PPAR alpha. Particulars: 18–24 hrs. As to the method:
as §1
HEK293 cells were grown in DMEM/F12 medium supplemented with 10% FBS and glutamine (Invitrogen) and incubated in a 5% CO2 incubator at 37° C. The cells were co-transfected using DMRIE-C reagent (Invitrogen) in serum free medium (Opti-MEM, Invitrogen) with two mammalian expression plasmids, one containing the DNA sequence coding for the ligand binding domains of either PPARαg or d fused to the yeast GAL4 DNA binding domain and the other containing the promoter sequence of the yeast GAL4 (UAS) fused to the firefly luciferase cDNA reporter. The next day, the medium was changed to DMEM/F12 medium supplemented with 5% charcoal treated serum (Hyclone) and glutamine. After 6 hrs the cells were trypsinized and seeded at a density of 50,000 cells/well into 96 well plates and incubated overnight as above. The cells were then treated with -test compounds or vehicle and incubated for 18–24 hrs as above. Luciferase reporter activity was measured using the Steady-Glo Luciferase Assay Kit from Promega. DMRIE-C Reagent was purchased from GIBCO Cat. No.10459-014. OPTI-MEM I Reduced Serum Medium was purchased from GIBCO (Cat. No. 31985). Steady-Glo Luciferase Assay Kit was purchased from Promega (Part#E254B).
A variety of example compounds have been made and tested, with a range of in vitro results. Below are representative compounds and data; in some cases, where multiple EC50's are shown, multiple measurements were taken. Naturally, different compounds in Formula (I) may have not have activities identical to any one compound below.

The target of test [3] is T3, PPAR gamma (Homo sapiens, UniProt P37231).
T3 construct: expressed in transfected cells; host or cells: HEK293
T3 sequence (P37231 238-503 limits assumed): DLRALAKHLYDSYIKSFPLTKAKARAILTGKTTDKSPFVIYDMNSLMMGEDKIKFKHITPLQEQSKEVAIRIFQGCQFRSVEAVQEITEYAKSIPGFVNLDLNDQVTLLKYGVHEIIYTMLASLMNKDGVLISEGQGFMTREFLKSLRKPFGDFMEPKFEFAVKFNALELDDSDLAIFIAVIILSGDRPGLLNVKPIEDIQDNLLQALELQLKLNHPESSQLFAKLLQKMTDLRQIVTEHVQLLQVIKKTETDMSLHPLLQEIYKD
Nature of the test: Transfection assay for PPAR receptors (GAL4-LBD luciferase reporter), PPAR gamma. Particulars: 18–24 hrs. The protocol:
as §1, §2

Setting [4] is: Table 1, HEK293 cells co-transfected with PPAR LBD-GAL4 and GAL4 (UAS) luciferase reporter.
Setting [5] is: Table 2, compounds of interest, HEK293 cells, PPAR LBD-GAL4 luciferase reporter.

These results are taken from patent publication US7015329B2 (Janssen Pharmaceutica N. V., priority 2003, dated 2006).

One may read the EC50 as the concentration at which the effect is half-maximal. Turning to `Cc1cc(SCc2nc(-c3ccc(C(F)(F)F)cc3)ns2)ccc1OCC(=O)O` [Compound 1, {2-Methyl-4-[3-(4-trifluoromethyl-phenyl)-[1,2,4]thiadiazol-5-ylmethylsulfanyl]-phenoxy}-acetic acid], the figures for the half-maximal effective concentration (EC50) in test [1] and in test [2] (setting [4]) were 10 nM and 468 nM, respectively.
The like results for `CC(C)(Oc1ccc(SCc2nc(-c3ccc(C(F)(F)F)cc3)ns2)cc1)C(=O)O` [Compound 2, 2-Methyl-2-{4-[3-(4-trifluoromethyl-phenyl)-[1,2,4]thiadiazol-5-ylmethylsulfanyl]-phenoxy}-propionic acid] were, in that order, 20 nM and 155 nM.
As to `Cc1cc(SCc2nc(-c3ccc(C(F)(F)F)cc3)ns2)ccc1OC(C)(C)C(=O)O` [Compound 3, 2-Methyl-2-{2-methyl-4-[3-(4-trifluoromethyl-phenyl)-[1,2,4]thiadiazol-5-ylmethylsulfanyl]-phenoxy}-propionic acid], the EC50 in test [1] was 7.5 nM; in test [2] (setting [4]), 87 nM.
As for `Cc1cc(SCc2nc(-c3ccc(OC(F)(F)F)cc3)ns2)ccc1OC(C)(C)C(=O)O` [Compound 4, 2-Methyl-2-{2-methyl-4-[3-(4-trifluoromethoxy-phenyl)-[1,2,4]thiadiazol-5-ylmethylsulfanyl]-phenoxy}-propionic acid], the EC50 in test [2] (setting [4]) came to 33 nM; in test [3] (setting [4]), 11600 nM.
As to `Cc1ccc(-c2nsc(CSc3ccc(OC(C)(C)C(=O)O)c(C)c3)n2)cc1C` [Compound 11, 2-{4-[3-(3,4-Dimethyl-phenyl)-[1,2,4]thiadiazol-5-ylmethylsultanyl]-2-methyl-phenoxy}-2-methyl-propionic acid], the 50% effective concentration (EC50) turned out to be 93 nM in test [1] and 115 nM in test [2] (setting [4]).
For `Cc1cc(OCc2nc(-c3ccc(C(F)(F)F)cc3)ns2)ccc1OC(C)(C)C(=O)O` [Compound 23, 2-Methyl-2-{2-methyl-4-[3-(4-trifluoromethyl-phenyl)-[1,2,4]thiadiazol-5-ylmethoxy]-phenoxy}-propionic acid], the concentration giving a half-maximal response (EC50) in test [2] (setting [4]) is 94 nM; in test [3] (setting [4]) it was over 3000 nM.
The like results for `Cc1cc(SCCc2nc(-c3ccc(C(F)(F)F)cc3)ns2)ccc1OC(C)(C)C(=O)O` [Compound 28, 2-Methyl-2-(2-methyl-4-{2-[3-(4-trifluoromethyl-phenyl)-[1,2,4]thiadiazol-5-yl]-ethylsulfanyl}-phenoxy)-propionic acid] were, in that order, 37.3 nM and 465 nM.
As to `Cc1cc(SCc2cc(-c3ccc(C(F)(F)F)cc3)sn2)ccc1OCC(=O)O` [Compound b, {2-Methyl-4-[5-(4-trifluoromethyl-phenyl)-isothiazol-3-ylmethylsulfanyl]-phenoxy}-acetic acid], the concentration giving a half-maximal response (EC50) in test [2] (setting [5]) and in test [3] (setting [5]) was over 3000 nM throughout.
Consider `Cc1cc(SCc2cc(-c3ccc(C(F)(F)F)cc3)ns2)ccc1OCC(=O)O` [Compound c, {2-Methyl-4-[3-(4-trifluoromethyl-phenyl)-isothiazol-5-ylmethylsulfanyl]-phenoxy}-acetic acid], for which the EC50 was over 1000 nM in test [2] (setting [5]) and over 3000 nM in test [3] (setting [5]).
For `Cc1cc(SCc2cc(-c3ccc(C(F)(F)F)cc3)no2)ccc1OCC(=O)O` [Compound f, {2-Methyl-4-[3-(4-trifluoromethyl-phenyl)-isoxazol-5-ylmethylsulfanyl]-phenoxy}-acetic acid], the EC50 in test [2] (setting [5]) and in test [3] (setting [5]) was over 3000 nM throughout.
For the compound `Cc1cc(SCc2cc(-c3ccc(C(F)(F)F)cc3)on2)ccc1OCC(=O)O` [Compound g, {2-Methyl-4-[5-(4-trifluoromethyl-phenyl)-isoxazol-3-ylmethylsulfanyl]-phenoxy}-acetic acid], the EC50 in test [2] (setting [5]) is 2210 nM; in test [3] (setting [5]) it was over 3000 nM.
As to “{2-Methyl-4-[5-(4-trifluoromethyl-phenyl)-pyridin-3-ylmethylsulfanyl]-phenoxy}-acetic acid [Compound e]”, in test [2] (setting [5]), the half-maximal effective concentration (EC50) was over 3000 nM.
